The values that follow come from patent US20180280480A1, “COMPOSITIONS AND PEPTIDES HAVING DUAL GLP-1R AND GLP-2R AGONIST ACTIVITY” (priority 2014, published 2018).

Holding throughout (assay type): in vivo
Assay [1] has as its system diabetic db/db (BKS.Cg-m+/+Leprdb/J) male mice. As to the kind of experiment: Intestinal volume and surface area (stereology) in diabetic db/db mice. To be noted: for Large intestine surface area / Large intestine volume / Small intestine surface area / Small intestine volume: Day 58, mean ± S.E.M. How it is done: A total of forty-six (46) diabetic db/db (BKS.Cg-m+/+Leprdb/J) male mice, 5 weeks old at arrival, was obtained from Janvier (France). […] They were housed in groups of n=2 in a light-, temperature-, and humidity-controlled room (12-hour light: 12-hour dark cycle, lights On/Off at 04.00/16.00 h; 22±1° C.; 50±10% relative humidity). During the habituation period animals was accustomed to the experimental paradigm.
(§1) Baseline, free fed blood glucose samples were obtained bi-weekly prior to study start (blood was collected from the tail vein) in order to screen for the diabetic state. The 40 animals closest to the mean BG/BW value at day −3 were randomized into 4 groups (n=10/group; the remaining 6 animals was be discarded from the main study): Group 1: Vehicle, BID, SC. […] During day 0-58 of the experiment, animals received a subcutaneous dosing twice daily at 06.00-08.00 hours and again between 02.00-04.00 hours. Dose volume was 5 ml/kg.
At the end of the study period mice were terminated by decapitation under isoflurane anaesthesia. The entire intestine was dissected out and divided into small and large which was then measured in length.

Assay [2] relates to C57BL/6J mice. As to the kind of experiment: GLP1R-GLP2R dual agonist compound study: oral glucose tolerance test. How it is done:
On day 7, an oral glucose tolerance test (OGTT) was performed. Animals were mildly fasted as all food was removed 4 hours prior to the oral glucose load. Vehicle (SC) and compounds were administered subcutaneously (SC) 2 hours prior to the OGTT. At t=0 mice received an oral glucose load (2 g/kg; 4 ml/kg; 500 mg/ml, Fresenius Kabi, Sweden). Glucose was given as gavage via a gastrically-placed tube connected to a syringe ensuring accurate dosing. Blood glucose was measured from tail vein blood before glucose (at t=−120 and 0 min, baseline) and after glucose administration at t=15, 30, 60 and 120 min. Blood samples (tail vein) was collected into 10 μl heparinized glass capillary tubes and immediately suspended in buffer (0.5 ml of glucose/lactate system solution (EKF-diagnostics, Germany) and analyzed for glucose on the test day using a BIOSEN c-Line glucose meter (EKF-diagnostics, Germany) according to manufacturer's instructions. Results from the OGTT are listed below in Table 11.

Assay [3] has as its system C57BL/6J mice. In words: GLP1R-GLP2R dual agonist compound study: cumulative food intake. The text has this: Forty (40, n=10, 4 groups) male C57BL/6J mice obtained from Taconic, Denmark, were used. At the time of the experiment, the mice had reached an age of 9-10 weeks. The mice were acclimatized for one week in their new environment and offered regular chow diet (Altromin 1324, Brogaarden A/S, Denmark) and domestic quality tap water. Animals were housed two per cage during the study, in a light-, temperature-, and humidity-controlled room (12-hour light: 12-hour dark cycle, lights on/off at 4 AM/4 PM hour; 22±1° C.; 50±10% relative humidity). […] Animals were uniquely identified with implantable microchips (Pet ID Microchip, E-vet) in all mice upon arrival. Animals were identified using the WS-2 weight station (MBrose ApS, Faaborg, Denmark) connected to a laptop running the HM02Lab software (Ellegaard Systems, Faaborg, Denmark). The HM02Lab software matches the body weight with ID and calculates the dose directly based on the body weight. All mice were handled for 3 days prior to the experiment to acclimatize the animals to handling and injections.

In assay [4] the test system is diabetic db/db (BKS.Cg-m+/+Leprdb/J) male mice. In words: Fed blood glucose and HbA1c in diabetic db/db mice. To be noted: for Blood glucose, fed state / HbA1c: Day 56, mean ± S.E.M. As for the experimental part: A total of forty-six (46) diabetic db/db (BKS.Cg-m+/+Leprdb/J) male mice, 5 weeks old at arrival, was obtained from Janvier (France). The mice were acclimatized for two weeks in their new environment with free access to normal chow (Altromin 1324, Brogaarden A/S, Gentofte, Denmark) and domestic quality tap water. They were housed in groups of n=2 in a light-, temperature-, and humidity-controlled room (12-hour light: 12-hour dark cycle, lights On/Off at 04.00/16.00 h; 22±1° C.; 50±10% relative humidity). During the habituation period animals was accustomed to the experimental paradigm.
as §1, with “SC. Group 2: SEQ ID NO 6, 50 nmol/kg, BID, SC. Group 3: SEQ ID NO 6, 250 nmol/kg, BID, SC.” for “SC.”
On experimental day 56 an oral glucose tolerance test was performed. Animals were mildly fasted as food was removed 4 hours prior to administration of the glucose bolus. Compounds were administered 45 minutes prior to the OGTT. At t=0, mice received an oral glucose load of 2 g/kg glucose (Glucose 200 mg/ml, Fresenius Kabi, Sweden). Glucose was given as gavage via a gastrically placed tube connected to a syringe ensuring accurate dosing. Blood samples were collected from the tail vein and blood-glucose was measured at time points −60, 0, 15, 30, 60, 120 and 240 minutes after the glucose administration. Samples for measuring HbA1c was taken in parallel with blood glucose at t=−60 minutes. Mice were re-fed after the last blood sampling.

Marks after values point to notes of the source that are not given here.

As to “R^1-HGDGSFTSELSTYLDALAARDFIAWLIQTKITDR^2 [SEQ ID NO 6]”, the “effect on small intestine volume and surface area” value in assay [1] (8 weeks of treatment, 50 and 250 nmol/kg) is recorded as “marked increase in small intestine volume as well as surface area”. Moreover, in assay [1] (50 nmol/kg BID SC), the “Large intestine surface area” value came to 3.6 ± 1.2 cm^2, the Large intestine volume came to 274.2 ± 7.0 mm^3, the “Small intestine surface area” value is reported as 348.9 ± 10.8*** cm^2 and the Small intestine volume is reported as 2097 ± 72.7*** mm^3. In assay [1] (250 nmol/kg BID SC), the “Large intestine surface area” value turned out to be 18.6 ± 1.9 cm^2, the Large intestine volume was 288.2 ± 23.7 mm^3, the “Small intestine surface area” value is reported as 344.0 ± 20.8*** cm^2 and the Small intestine volume is recorded as 2043 ± 62.3*** mm^3. In addition, in the assay on C57BL/6J mice [2] (Day 7, 3.0 mg/kg BID SC, glucose 2 g/kg oral, mean ± S.E.M.), the “Oral glucose tolerance test AUC, 0-120 min” value came out at 523 ± 112 mmol·min/L. Moreover, the “blood glucose compared to vehicle and teduglutide” value with C57BL/6J mice [2] (dosed twice daily for 7 days) was “significantly reduced fasting blood glucose”. Moreover, in the assay with C57BL/6J mice [3] (Day 0-7, 3.0 mg/kg BID SC, mean ± S.E.M.), the Cumulative food intake was 21.96 ± 1.46 g. For the same substance, in the assay with C57BL/6J mice [3] (dosed twice daily for 7 days), the “cumulative food intake compared to vehicle and teduglutide” value is listed as “considerably reduced cumulative food intake”. The “effect on fed-state blood glucose, HbA1c and glucose tolerance” value in assay [4] (8 weeks of treatment, db/db mice) is listed as “reduction in fed-state blood glucose, HbA1c levels as well as an improving of glucose tolerance in a dose dependent manner”. For the same substance, in assay [4] (50 nmol/kg BID SC), the “Blood glucose, fed state” value is 7.2 ± 1.0 mmol/L and the HbA1c is on record as 5.0 ± 0.2 %. In assay [4] (250 nmol/kg BID SC), the “Blood glucose, fed state” value amounted to 5.9 ± 0.4 mmol/L and the HbA1c is 4.4 ± 0.1 %.
